# Assay results as given in patent publication US6649637B2, “Inhibition of intracellular replication by pyridinylimidazoles” (priority 2001, dated 2003).
# Like-named read-outs stand apart in the source and are kept apart here.
# What was measured:
# T. gondii [1] = conditions: cited from earlier work
# RH strain T. gondii [2] = test: Stage conversion (tachyzoite to bradyzoite) by flow cytometry, RH strain; assay type: cell-based, Toxoplasma gondii
# Method: Bradyzoites highly express p36 (BSR4), and p21 in cell culture, and downregulate the tachyzoite-specific proteins SAG1 and SAG2 (38, 39). […] The drugs were replaced every 5 days. After 15 days, adherent, infected fibroblasts were recovered and freed intracellular organisms were analyzed by flow cytometry (FIG. 6A).
# (§1) Tachyzoites were stained with murine monoclonal antibodies specific for tachyzoite protein (SAG-2, provided by Jacqueline Channon, Dartmouth) or bradyzoite-specific antibodies against p21 or p36 (32) followed by fixation with paraformaldehyde. Flow cytometric data were acquired on a FACS Calibur (Becton-Dickinson, Mountain View, Calif.) and analyzed using CellQuest software (Becton-Dickinson) with 5000 or more events evaluated for each condition. Analysis gates were set using appropriate antibody isotype controls, and dead cells were excluded based on light scatter characteristics.
# RH T. gondii = test: Combination with pyrimethamine: [3H]uracil incorporation in RH infected fibroblasts; assay type: cell-based, Toxoplasma gondii; conditions: SB203580 1 μM
# Method: Fibroblasts were infected overnight and then treated with both drugs simultaneously or individually. Incorporated [^3H]methyuracil was measured 48 hours later. Data from one representative experiment is shown.
# Pyrimethamine (Sigma) was dissolved in dimethylsulfoxide and added 1 hour after infection alone or in combination with other agents.
# [3] = tested on: T. gondii acyl-CoA:cholesterol acyltransferase; test: Cholesterol esterification ([14C]oleate pulse labelling) in extracellular tachyzoites; assay type: biochemical, Toxoplasma gondii; conditions: 10 μM, extracellular RH tachyzoites, 7 hours
# Method: (§2) The mean of triplicate replications with standard error bars is shown. “Control” is no drug treatment.
# One experiment representative of 4 is shown for each measure.
# Cholesterol esterification activity was assessed by pulse-labeling of cells using radiolabeled fatty acid as substrate. […] At the time of drug addition, acyl-CoA:cholesterol acyltransferase activity was stimulated with 25-hydroxycholesterol plus cholesterol and cells were pulse-labeled for 2 hours with 20 μl sodium [^14C]oleate-albumin complex. Lipids were extracted with hexane/isopropanol (3:2 ratio) and the organic solvents evaporated under a nitrogen stream. Lipids were resuspended in chloroform, spotted on TLC silica gel G plates (Fisher, Fairlawn, N.J.) and separated in hexane/ethyl ether/glacial acetic acid (80:20:1 ratio). Cholesterol ester content was determined by liquid scintillation and normalized as pmol ^14C/mg protein. […] After 3 days, cells were fixed in paraformaldehyde, rinsed in PBS, stained with filipin (Sigma) and examined by fluorescence microscopy using an excitation filter of 350-410 nm. Cholesterol content was determined in densitometric units measured with an Alpha Imager 2000 (Alpha Innotech Corporation, San Leandro, Calif.).
# mutant tachyzoite SBRRH2 = test: Replication of SB203580-resistant RH clone SBRRH2 in fibroblasts; assay type: cell-based, Toxoplasma gondii
# [4] = tested on: T. gondii RH strain tachyzoites; test: [3H]methyluracil incorporation: intracellular tachyzoite replication in human fibroblasts, RH strain; assay type: cell-based, Toxoplasma gondii; conditions: drug added 6 hours after infection; for inhibition of intracellular RH strain tachyzoite replication: dose-dependent
# T. gondii strain RH = test: Protection of fibroblast monolayers from T. gondii-mediated destruction
# Excerpt: Photomicrographs were taken 5 days after treatment was begun.
# RH strain T. gondii [5] = test: Diamidino-2-phenylindole staining / microscopy of infected fibroblasts: tachyzoite and vacuole morphology; conditions: for tachyzoite morphology (bi-/multinucleated forms): diamidino-2-phenylindole staining
# Method: Parasitophorous vacuoles and tachyzoite morphology were assessed by diamidino-2-phenylindole staining 24 hours later using an ultraviolet light with excitation at 410-430 nM.
# Tachyzoites were released from infected fibroblasts by forced passage through a 27-gauge needle, and used within 2 hours of collection to infect new host cells. Tachyzoites were enumerated with a hemacytometer using Trypan blue dye. To evaluate nuclear morphology, infected cells were stained with diamidino-2phenylindole (Sigma) and examined by light microscopy at 400× magnification. To estimate the intensity of T. gondii infection, cytospin preparations of aliquots of cells in infected cultures were stained with Giemsa stain and examined by light microscopy using a 40× objective. At least 200 cells per condition were counted.
# T. gondii [6] = test: T. gondii replication in dendritic cells; assay type: cell-based, Toxoplasma gondii
# [7] = tested on: T. gondii Me49 strain tachyzoites; test: [3H]methyluracil incorporation: intracellular tachyzoite replication in human fibroblasts, Me49 strain; assay type: cell-based, Toxoplasma gondii; conditions: for Me49 strain more susceptible to growth inhibition than RH strain: ratio of IC50 RH / Me49
# [8] = tested on: T. gondii infected dendritic cells; assay type: cell-based, human
# RH strain tachyzoites = test: Tachyzoite cholesterol content (densitometric units); assay type: cell-based, Toxoplasma gondii; conditions: 10 μM
# Method: as §2
# Cholesterol esterification activity was assessed by pulse-labeling of cells using radiolabeled fatty acid as substrate. […] At the time of drug addition, acyl-CoA:cholesterol acyltransferase activity was stimulated with 25-hydroxycholesterol plus cholesterol and cells were pulse-labeled for 2 hours with 20 μl sodium [^14C]oleate-albumin complex. Lipids were extracted with hexane/isopropanol (3:2 ratio) and the organic solvents evaporated under a nitrogen stream. Lipids were resuspended in chloroform, spotted on TLC silica gel G plates (Fisher, Fairlawn, N.J.) and separated in hexane/ethyl ether/glacial acetic acid (80:20:1 ratio). Cholesterol ester content was determined by liquid scintillation and normalized as pmol ^14C/mg protein. For cytochemical staining of 3-hydroxysterols, fibroblasts were seeded on poly-lysine coated coverslips, infected with RH T. gondii tachyzoites and incubated with drugs as described. After 3 days, cells were fixed in paraformaldehyde, rinsed in PBS, stained with filipin (Sigma) and examined by fluorescence microscopy using an excitation filter of 350-410 nm. Cholesterol content was determined in densitometric units measured with an Alpha Imager 2000 (Alpha Innotech Corporation, San Leandro, Calif.).
# Me49 tachyzoites = test: Stage conversion (tachyzoite to bradyzoite) by flow cytometry, Me49 strain; assay type: cell-based, Toxoplasma gondii; conditions: Me49, after 5 days of treatment
# Excerpt: as §1
# human p38 MAPK = human p38 MAPK (Homo sapiens, UniProt Q16539); conditions: cited from earlier work
# [9] = tested on: extracellular T. gondii tachyzoites; test: Incubation of extracellular tachyzoites with drug, wash, then [3H]uracil incorporation in fresh fibroblasts; assay type: cell-based, Toxoplasma gondii; conditions: 10 μM, extracellular tachyzoites incubated 1 hour, washed; at 48 hours
# [10] = infected MOI 3 for 2 days, then 10 μM, 5 days after treatment was begun
# [11] = single dose 10 μM 1 hour after infection, MOI 3, three days after infection
# [12] = fibroblasts, [3H]methyluracil incorporation
# Sequence of human p38 MAPK (Q16539 whole entry): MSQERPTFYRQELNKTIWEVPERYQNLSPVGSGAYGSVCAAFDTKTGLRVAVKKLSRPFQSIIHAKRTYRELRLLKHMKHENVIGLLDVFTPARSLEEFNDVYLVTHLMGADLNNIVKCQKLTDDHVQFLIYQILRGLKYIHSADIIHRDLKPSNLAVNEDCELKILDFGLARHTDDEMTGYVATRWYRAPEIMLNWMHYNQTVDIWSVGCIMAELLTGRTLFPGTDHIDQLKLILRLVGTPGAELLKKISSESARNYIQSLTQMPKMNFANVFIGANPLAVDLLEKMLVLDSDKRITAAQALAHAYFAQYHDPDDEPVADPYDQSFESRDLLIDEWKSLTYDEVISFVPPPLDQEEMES
compound,measurement,setting,value
COc1cccc(-c2cc(=O)c3ccccc3o2)c1N [PD098059],effect on intracellular T. gondii replication (Roisin et al.),T. gondii [1],slightly reduced
"C[S+]([O-])c1ccc(-c2nc(-c3ccc(F)cc3)c(-c3ccncc3)[nH]2)cc1 (centres unmarked) [SB203580, 4(4-fluorophenyl)-2-(4-methylsulfinylphenyl)-5(4-pyridyl)1H-imidazole]",p36+ organisms (bradyzoite marker),"RH strain T. gondii [2]; 10 μM SB203580 or 1 μg pyrimethamine, 15 days",significantly higher number
same,p21+ cells (bradyzoite marker),RH strain T. gondii [2]; SB203580,not evident
same,SAG2+ organisms (tachyzoite marker),"RH strain T. gondii [2]; after 15 days of culture with SB203580, 100% at culture outset",< 15%
same,"inhibition of RH T. gondii replication, single agent",RH T. gondii,effective dose
same,acyl-CoA:cholesterol acyltransferase activity,[3],did not interfere
same,inhibition of replication of SBRRH2 in fibroblasts,mutant tachyzoite SBRRH2; 10 μM,no detectable capacity to inhibit
same,inhibition of intracellular RH strain tachyzoite replication,[4],significantly inhibited
same,infected fibroblast monolayers under constant drug,"T. gondii strain RH; constant 10 μM, four weeks",not destroyed
same,monolayer destroyed (FIG. 6 legend),T. gondii strain RH; [10],approximately 50%
same,infected fibroblast culture destroyed,T. gondii strain RH; [11],approximately 50%
same,cyst-like structures in infected fibroblasts,RH strain T. gondii [5]; after 3 to 5 days,developed cyst-like structures
same,tachyzoite morphology (bi-/multinucleated forms),RH strain T. gondii [5],induced formation of tachyzoites with two or more nuclei
same,T. gondii replication in dendritic cells,T. gondii [6],does reduce
same,Me49 strain more susceptible to growth inhibition than RH strain,[7],approximately 12 fold
same,reversal of T. gondii mediated immunosuppression,[8],significantly reversed immunosuppression
same,tachyzoite cholesterol content,RH strain tachyzoites,only minimally reduced
same,SAG2 expression,Me49 tachyzoites,decreased
same,p21 expression,Me49 tachyzoites,significantly increased
"Oc1ccc(-c2nc(-c3ccc(F)cc3)c(-c3ccncc3)[nH]2)cc1 [SB202190, 4-(4-fluorophenyl)-2(4-hydroxphenyl)-5-(4 pyridyl)1H-imidazole]",cross-resistance of SB203580-resistant tachyzoites,mutant tachyzoite SBRRH2,Cross-resistance to SB202190 was observed
same,IC50,"[4]; [3H]methyluracil incorporation, fibroblasts, estimated by linear interpolation, read-out: IC50 for inhibition of RH strain replication",~5000 nM
same,inhibition of intracellular RH strain tachyzoite replication,[4],significant inhibition
same,state of monolayer (FIG. 6 legend),T. gondii strain RH; [10],virtually intact
same,state of infected fibroblast culture,T. gondii strain RH; [11],healthy and confluent
same,IC50,"[7]; [3H]methyluracil incorporation, fibroblasts, drug added 6 hours after infection, estimated by linear interpolation, read-out: IC50 for inhibition of Me49 strain replication",~200 nM
same,Me49 strain more susceptible to growth inhibition than RH strain,[7],~25 fold
same,reversal of T. gondii mediated immunosuppression,[8],significantly reversed immunosuppression
O=c1c(-c2ccc(O)cc2)coc2cc(O)cc(O)c12 [genistein],effect on intracellular T. gondii replication (Roisin et al.),T. gondii [1],no significant effect
CCc1nc(-c2ccc(OC)cc2)[nH]c1-c1ccncc1 [SB202474],p38 MAPK inhibitory activity,human p38 MAPK,without significant p38 MAPK inhibitory effects
same,p38 MAPK inhibitory activity,human p38 MAPK; listed as SB202494,no anti-p38 MAPK activity
same,state of monolayer (FIG. 6 legend),T. gondii strain RH; [10],completely destroyed
same,state of infected fibroblast culture,T. gondii strain RH; [11],essentially destroyed
same,tachyzoite morphology (bi-/multinucleated forms),RH strain T. gondii [5],did not induce binucleated forms
same,effect on Me49 tachyzoite replication,[7]; [12],no significant effect
same,reversal of T. gondii mediated immunosuppression,[8],did not reverse immunosuppression
same,reduction of [3H]uracil incorporation,[9],< 15%
N#CC(=C(/N)Sc1ccccc1N)/C(C#N)=C(\N)Sc1ccccc1N [U0126],inhibition of intracellular RH strain tachyzoite replication,[4],no significant effect
same,tachyzoite morphology (bi-/multinucleated forms),RH strain T. gondii [5],did not induce binucleated forms
same,effect on Me49 tachyzoite replication,[7]; [12],no significant effect
same,reversal of T. gondii mediated immunosuppression,[8],did not reverse immunosuppression
[O]=[V]([O-])([O-])[O-] [vanadate],state of infected fibroblast culture,T. gondii strain RH; [11],essentially destroyed
